In series [1] the target is T1, Kappa-opioid receptor (Homo sapiens, UniProt P41145).
T1 construct: expressed in transfected cells; host or cells: HEK293
Put plainly: cAMP functional experiment, Kappa-opioid receptor (forskolin-induced cAMP accumulation). Format: cell-based. As for the experimental part: (§1) The agonistic activity of the cyclopeptide molecule of the present invention against Mu-opioid receptor, Delta-opioid receptor, Kappa-opioid receptor, NPFF1 receptor and NPFF2 receptor was evaluated by detecting the regulation of the cyclopeptide molecule of the present invention on the intracellular accumulation of cyclic adenosine monophosphate (cAMP) induced by Forskolin in HEK293 cells stably expressing these five receptors. The experimental method was: the cells were seeded in 24 well plates with 120000 cells per well, and were cultured for more than 20 hours. At the beginning of the experiment, the culture medium in the culture dish was suck out, and then 500 μL of preheated serum-free medium containing 1 mM of IBMX was added, the mixture was incubated at 37° C. for 10 minutes. Then each 10 μL of the drug to be tested and 10 μM of forskolin (final concentration) were added to each well. The mixture was incubated at 37° C. for 30 minutes. After incubation, all the liquid was suck out from the culture dish, 500 μL of 0.2 N hydrochloric acid was added to each well, the mixture was incubated at room temperature for 30 minutes to promote cell lysis. After lysis was complete, NaOH was added to neutralize the hydrochloric acid solution used for lysis. Then all the liquid was suck out from the culture dish into centrifuge tubes, the liquid was centrifuged at 12000 rpm for 2 minutes. 50 μL was taken to a clean centrifuge tube, 100 μL of 60 μg/μL PKA was added, and 100 μL of TE cAMP buffer was added to the blank control group (B). Another 50 μL of 0.5 μ Ci[^3H]cAMP was added to each of the above centrifuge tubes, the mixture was quickly mixed and incubated at 4° C. for more than 2 hours. After incubation, another 100 μL of activated carbon suspension was added to each tube, the mixture was vortex agitated evenly, placed in an ice bath for 1 minute, centrifuged at 5000 rpm for 4 minutes. 200 μL of supernatant after centrifugation in each tube was suck out to a 24 well plate, with an additional 700 μL of scintillator liquid added per well, then the 24 well plate was sealed with adhesive film, placed for 3 hours, then placed on the scintillation instrument for measurement.
(§2) The inhibitory effect of cAMP was represented by the percentage (% control) of drug inhibition of intracellular cAMP accumulation induced by Forskolin, wherein % control=(cAMP content when treated with Forskolin−cAMP content when Forskolin co-treated with the test drug)/(cAMP content when treated with Forskolin−cAMP content when treated with solvent). The related % control data was represented by mean±S.E.M. The dose-effect relationship of the drug was statistically analyzed using a nonlinear regression model, and the IC50 values of the multi-target cyclopeptide molecule on inhibition of Forskolin induced intracellular cAMP accumulation were calculated using the statistical software GraphPad Prism version 5.0.
A general note: cAMP levels reflect the balance of adenylyl cyclase and phosphodiesterase activity.

Series [2] has as its target T2, Delta-opioid receptor (Homo sapiens, UniProt P41143).
T2 construct: expressed in transfected cells; host or cells: HEK293
In words: cAMP functional experiment, Delta-opioid receptor (forskolin-induced cAMP accumulation). Format: cell-based. Here is the method: as §1, §2

The target of series [3] is T3, NPFF1 receptor (Homo sapiens, UniProt Q9GZQ6).
T3 construct: expressed in transfected cells; host or cells: HEK293
In words: cAMP functional experiment, NPFF1 receptor (forskolin-induced cAMP accumulation). The class given is cell-based. Here is the method:
as §1, §2

Series [4] addresses T4, NPFF2 receptor (Homo sapiens, UniProt Q9Y5X5).
T4 construct: expressed in transfected cells; host or cells: HEK293
Put plainly: cAMP functional experiment, NPFF2 receptor (forskolin-induced cAMP accumulation). Format: cell-based. As for the experimental part:
as §1, §2

Series [5] in a line: Constipation side effect assay (gastrointestinal motility, activated carbon). The class given is in vivo, mice. The settings on record: male, Kunming, mouse, in vivo; oral injection, mice; read-out: ED50 of gastrointestinal inhibition. Here is the method: (§3) 26±2 g Kunming male mice were selected. First, the mice were starved and placed in a box without padding. The mice were not allowed to eat, but could drink water freely. The mice were starved for 16 hours then weighted, and administered orally (p.o.). After 15 minutes of administration, pre-prepared activated carbon suspension (a physiological saline suspension containing 5% activated carbon and 10% arabic gum) was orally infused into the stomach at a volume of 0.1 mL/10 g. After 30 minutes of gavage, the mice were sacrificed through cervical dislocation. The mice were dissected immediately and the entire length of the small intestine was taken from the pylorus of the stomach to the cecum. Then the total length of the small intestine and the length of carbon powder movement were measured.
(§4) The experimental data of gastrointestinal motility was represented by a percentage of gastrointestinal motility, and the specific calculation method was represented by a percentage of the distance the carbon powder moved divided by the total length of the small intestine. The data was represented by the mean±S.E.M. of the percentage of gastrointestinal motility, and the differences between compounds and saline were analyzed using one-way ANOVA (Dunnett test). *P<0.05, **P<0.01, and ***P<0.001indicated significance of the difference between only saline injected and related compounds injected.

The test system of series [6] is Kunming male mice. Described as above. Format: in vivo. The settings on record: oral; for side effect of constipation: effective dose range of analgesia. As for the experimental part:
as §3, §4

The subject of series [7] is mice. In words: Naloxone withdrawal experiment (number of jumps). The settings on record: for number of jumps: escalating doses every 8 hours, naloxone 10 mg/kg i.p., 30 minutes, saline 5; for withdrawal symptoms versus saline: oral, low and high doses. The class given is in vivo. As for the experimental part: The naloxone withdrawal test is a classic experiment for evaluating drug physiological addiction. The experimental method is based on Venetia Zachariou (2003). […] High doses of compound 11 were also administered with doses of 20, 40, 60, 80, 100, 100, and 100 μg/kg, respectively. Two hours after the last administration, mice were intraperitoneally injected with 10 mg/kg of naloxone. Then the mouse was immediately placed in an opaque barrel-shaped structure with an inner diameter of 9 cm and a height of 32 cm, and the number of jumps in mice within 30 minutes was recorded. The experimental results were represented by the number of jumps in mice, which is the number of jumps±S.E.M. The difference between the compound group and saline control group was statistically analyzed using one-way ANOVA (Bonferroni test). *P<0.05, **P<0.01, and ***P<0.001 indicated significance of differences between saline and compound.

Experimental findings from patent US20240166690A1, “MULTI-TARGET CY[…] FOR OPIOID/NEUROPEPTIDE FF RECEPTORS, AND PREPARATION THEREFOR AND APPLICATION THEREOF” (SHANGHAI TIANCI LIFE SCIENCE DEVELOPMENT CO., LTD., priority 2021, published 2024) are described below.

The IC50 is the point on the concentration scale where inhibition reaches its midpoint. Lower therefore signals higher potency. The term ED50 denotes the midpoint of the dose-response relation.

Bridge positions count the residues as written; N and C are the ends. Square brackets hold non-standard residues; d marks the D form. Peptide text beside a SMILES is read from it. NMeF = CN[C@@H](Cc1ccccc1)C(=O)O; dOrn = NCCC[C@@H](N)C(=O)O

T1 sequence (P41145 whole entry): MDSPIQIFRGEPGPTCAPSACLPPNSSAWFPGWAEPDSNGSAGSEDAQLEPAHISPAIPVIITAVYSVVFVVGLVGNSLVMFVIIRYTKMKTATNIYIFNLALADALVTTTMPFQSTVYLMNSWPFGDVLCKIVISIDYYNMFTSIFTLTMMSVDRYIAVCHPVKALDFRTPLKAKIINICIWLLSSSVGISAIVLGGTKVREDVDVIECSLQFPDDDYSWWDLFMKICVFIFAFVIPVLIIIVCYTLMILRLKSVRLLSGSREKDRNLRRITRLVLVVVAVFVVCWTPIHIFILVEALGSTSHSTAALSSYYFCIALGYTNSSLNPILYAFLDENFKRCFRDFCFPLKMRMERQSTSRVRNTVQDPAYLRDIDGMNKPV
T2 sequence (P41143 whole entry): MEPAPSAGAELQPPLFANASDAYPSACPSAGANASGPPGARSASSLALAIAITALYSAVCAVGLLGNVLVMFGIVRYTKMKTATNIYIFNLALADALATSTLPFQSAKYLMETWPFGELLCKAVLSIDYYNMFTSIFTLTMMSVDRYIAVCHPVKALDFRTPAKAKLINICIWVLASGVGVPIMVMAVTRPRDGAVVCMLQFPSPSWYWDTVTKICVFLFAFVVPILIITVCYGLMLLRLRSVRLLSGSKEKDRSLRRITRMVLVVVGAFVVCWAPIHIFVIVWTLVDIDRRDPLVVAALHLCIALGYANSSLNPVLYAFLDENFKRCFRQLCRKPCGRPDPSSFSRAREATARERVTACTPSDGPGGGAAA
T4 sequence (Q9Y5X5 whole entry): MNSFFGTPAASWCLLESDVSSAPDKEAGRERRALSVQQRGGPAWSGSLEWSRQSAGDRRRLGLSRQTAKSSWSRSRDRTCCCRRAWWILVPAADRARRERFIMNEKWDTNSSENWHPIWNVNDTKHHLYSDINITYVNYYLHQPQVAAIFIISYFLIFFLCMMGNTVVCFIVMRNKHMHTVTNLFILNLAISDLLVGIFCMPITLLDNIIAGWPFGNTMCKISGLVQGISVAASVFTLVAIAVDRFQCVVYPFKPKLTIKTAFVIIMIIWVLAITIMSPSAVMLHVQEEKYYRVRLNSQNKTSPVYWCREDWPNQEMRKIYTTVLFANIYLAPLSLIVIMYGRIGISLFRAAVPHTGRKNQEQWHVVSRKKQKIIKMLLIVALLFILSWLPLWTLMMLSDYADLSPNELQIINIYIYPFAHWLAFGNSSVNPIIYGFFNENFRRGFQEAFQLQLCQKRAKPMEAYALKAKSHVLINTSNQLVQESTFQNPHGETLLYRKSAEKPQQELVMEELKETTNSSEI
T3 sequence (Q9GZQ6 whole entry): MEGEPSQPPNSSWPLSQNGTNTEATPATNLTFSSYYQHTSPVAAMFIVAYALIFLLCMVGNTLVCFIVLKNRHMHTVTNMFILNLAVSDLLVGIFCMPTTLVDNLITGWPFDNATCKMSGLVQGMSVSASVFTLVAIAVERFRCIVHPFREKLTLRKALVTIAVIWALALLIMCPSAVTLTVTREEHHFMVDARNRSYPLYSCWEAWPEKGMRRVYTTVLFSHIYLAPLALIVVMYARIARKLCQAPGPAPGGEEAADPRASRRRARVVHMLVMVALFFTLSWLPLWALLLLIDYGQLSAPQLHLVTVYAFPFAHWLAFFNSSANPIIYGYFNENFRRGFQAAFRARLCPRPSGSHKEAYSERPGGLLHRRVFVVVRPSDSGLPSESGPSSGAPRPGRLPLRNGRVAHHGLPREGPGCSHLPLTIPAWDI

As to `CN1C(=O)CNC(=O)[C@H](NC(=O)[C@@H](N)Cc2ccc(O)cc2)CCCCNC(=O)C[C@@H](C(=O)N2CCC[C@H]2C(=O)N[C@@H](CCC(N)=O)C(=O)N[C@@H](CCCNC(=N)N)C(=O)N[C@@H](Cc2ccccc2)C(N)=O)NC(=O)[C@@H]1Cc1ccccc1` [Compound 1, Tyr-c[D-Lys-Gly-NMe-Phe-Asp]-Pro-Gln-Arg-Phe-NH2] (H-Y[dK]G[NMeF]DPQRF-NH2; lactam 2-5), the IC50 was determined as 39 nM in series [1], 549 nM in series [2], 104 nM in series [3] and 49.8 nM in series [4]. Also, the median effective dose (ED50) at 45 min in series [5] came to 37.1 mg/kg. Also, the “ED50 of gastrointestinal inhibition relative to analgesic ED50” value in series [6] came out at 27044 times. Moreover, the “side effect of constipation” value in series [6] is reported as “no side effect of constipation within the effective dose range of analgesia”. For the same compound, the number of jumps in series [7] (high-dose oral) and in series [7] (low-dose oral) was 1 in each case. Also, the “withdrawal symptoms versus saline” value in series [7] was “did not show withdrawal symptoms”.
For the compound `CN1C(=O)CNC(=O)[C@H](NC(=O)[C@@H](N)Cc2ccc(O)cc2)CCCNC(=O)CC[C@@H](C(=O)N2CCC[C@H]2C(=O)N[C@@H](CCC(N)=O)C(=O)N[C@@H](CCCNC(=N)N)C(=O)N[C@@H](Cc2ccccc2)C(N)=O)NC(=O)[C@@H]1Cc1ccccc1` [Compound 11, Tyr-c^[2,5][D-Orn-Gly-NMe-Phe-Glu]-Pro-Gln-Arg-Phe-NH2] (H-Y[dOrn]G[NMeF]EPQRF-NH2; lactam 2-5), the IC50 amounted to 109 nM in series [1], 1560 nM in series [2], 42.9 nM in series [3] and 572 nM in series [4]. For the same compound, the ED50 at 45 min in series [5] is 1.24 mg/kg. The “ED50 of gastrointestinal inhibition relative to analgesic ED50” value in series [6] was 8850 times. Also, in series [6], the “side effect of constipation” value is “no side effect of constipation within the effective dose range of analgesia”. Besides, the number of jumps in series [7] (high-dose oral) is 4; in series [7] (low-dose oral) it was 9. The “withdrawal symptoms versus saline” value in series [7] was “did not show withdrawal symptoms”.
